Converted amounts (≈) assume the structure as drawn. Bridge positions count the residues as written; N and C are the ends. Square brackets hold non-standard residues; d marks the D form. Peptide text beside a SMILES is read from it. * marks the point of attachment. Heptanoyl(6-Me) = CC(C)CCCCC(=O)*; Dab = NCC[C@H](N)C(=O)O; Dap = NC[C@H](N)C(=O)O
Columns and labels:
[1] = tested on: Pseudomonas aeruginosa ATCC27853; assay: In vivo antibacterial (protection) test in infected mice; settings: infected ICR mice; for mortality rate: 7 days observation
Excerpt: Pseudomonas aeruginosa ATCC27853 was selected for the determination of in vivo antibacterial activity.
One day before infection, the test bacteria were inoculated onto the corresponding nutrient agar plates and cultured overnight. On the day of infection, single colonies grown on the plates were picked and suspended in sterile normal saline, and the suspension was mixed thoroughly to obtain the original bacterial solution. The bacterial solution was then adjusted to the required concentration with 5% dried yeast powder and prepared freshly prior to use.
Healthy ICR mice were randomly divided into groups, with 5 mice per group, half male and half female. Bacterial solutions of different dilutions were aspirated and injected intraperitoneally into mice at a volume of 0.5 mL per 20 g of body weight. The mortality of mice was recorded within 7 days after infection. The minimum bacterial dose causing 100% mortality in mice was defined as the minimum lethal dose (MLD), which was used as the infection dose for the in vivo protection test.
Drug administration was performed via tail vein injection at 2 h, 8 h, 24 h, and 30 h after infection, with a total of 4 administrations, and the administration volume was 20 mL/kg. For the preparation of drug solutions, Compound 7, together with the control drugs polymyxin B and meropenem, were dissolved in normal saline to the required concentrations for tail vein injection, and all solutions were prepared freshly prior to use.
In the preliminary test, the drug dose concentrations that caused 100% mortality and no mortality in mice after infection with the tested bacteria were determined. Based on this dose range, 4-5 dose groups were established, with a dose ratio of 1:0.5 to 1:0.8 between adjacent groups.
Mice were randomly grouped according to body weight, with 8 mice per group (half male and half female). Each mouse was intraperitoneally infected with the test bacterial solution at a volume of 0.5 mL per 20 g of body weight, followed by tail vein injection at 2 h, 8 h, 24 h, and 30 h after infection. Mice in the blank control group were not infected with bacterial solution but were only given an equal volume of vehicle at an administration volume of 20 mL/kg. The mortality of mice was observed and recorded for 7 consecutive days.
The minimum lethal bacterial concentration of Pseudomonas aeruginosa ATCC27853 for intraperitoneal infection in mice was 4.2 × 10^2 CFU/mL, which was used as the infection dose in the formal test.
Mice in the infection control group were intraperitoneally inoculated with Pseudomonas aeruginosa ATCC27853 bacterial solution at the MLD concentration ([…]). Infection symptoms began to appear 3-4 hours after inoculation, and all 8 animals died within 48 hours (8/8), with a mortality rate of 100%.

[2] = tested on: Pseudomonas aeruginosa PAE19-3; format: cell-based; settings: Pseudomonas aeruginosa PAE19-3
In short: (§1)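 MIC by CLSI broth microdilution; MH broth; final drug 64–0.03 mg/L, 2-fold; inoculum (2-4) × 10^5 CFU/mL from 0.5 McFarland suspension of 18-24 h colonies; 35-37°C, 16-20 h; growth controls included.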

[3] = tested on: Pseudomonas aeruginosa ATCC 27853; format: cell-based; settings: Pseudomonas aeruginosa ATCC27853
In short: as §1

[4] = tested on: Acinetobacter baumannii NCTC 13304 (OXA-27); format: cell-based; settings: Acinetobacter baumannii NCTC 13304 (OXA-27)
In short: as §1

[5] = tested on: Klebsiella pneumoniae ATCC BAA-1705 (KPC); format: cell-based; settings: Klebsiella pneumoniae ATCC BAA-1705 (KPC)
In short: as §1

[6] = tested on: Klebsiella pneumoniae KPN+19-15; format: cell-based; settings: Klebsiella pneumoniae KPN 19-15
In short: as §1

[7] = tested on: Escherichia coli ATCC BAA-2340 (KPC); format: cell-based; settings: Escherichia coli ATCC BAA-2340 (KPC)
In short: as §1

[8] = tested on: Acinetobacter baumannii ABA19-1; format: cell-based; settings: Acinetobacter baumannii ABA19-1
In short: as §1

[9] = tested on: Escherichia coli ATCC BAA-2523; format: cell-based; settings: Escherichia coli ATCC BAA-2523
In short: as §1

[10] = tail vein twice daily for 2 days, Bliss method

CC(C)CCCCC(=O)N[C@@H](CCN)C(=O)N[C@H](C(=O)N[C@@H](CN)C(=O)N[C@H]1CCNC(=O)[C@H]([C@@H](C)O)NC(=O)[C@H](CCN)NC(=O)[C@H](CCN)NC(=O)[C@H]([C@@H](C)O)NC(=O)[C@@H](Cc2ccccc2)NC(=O)[C@H](CCN)NC1=O)[C@@H](C)O [Compound 7, 6-methylheptanoyl-Dab-Thr-Dap-ring(4-10)[Dab-Dab-D-Phe-Thr-Dab-Dab-Thr]] ({Heptanoyl(6-Me)}-[Dab]T[Dap][Dab][Dab][dF]T[Dab][Dab]T; lactam 4-C)
mortality rate ([1]; 3.4 mg/kg tail vein twice daily for 2 days): 100% | mortality rate ([1]; 4.9 mg/kg tail vein twice daily for 2 days): 87.5% | mortality rate ([1]; 7 mg/kg tail vein twice daily for 2 days): 37.5% | mortality rate ([1]; 10 mg/kg tail vein twice daily for 2 days): 0% | ED5 [1, 10]: 4.54 mg/kg | ED50 [1, 10]: 6.38 mg/kg | ED95 [1, 10]: 8.96 mg/kg | MIC [2]: 0.125 µg/mL (≈ 0.107 µM) | MIC [3]: ≤0.03 µg/mL | MIC [4]: ≤0.03 µg/mL | MIC [5]: ≤0.03 µg/mL | MIC [6]: ≤0.03 µg/mL | MIC [7]: ≤0.03 µg/mL | MIC [8]: ≤0.03 µg/mL | MIC [9]: ≤0.03 µg/mL
